Our source for the IC50 and EC50 values is patent publication US11401278B2, “Macrocyclic indole derivatives” (The Broad Institute, Inc., priority 2017, dated 2022).

Values joined by “and” are separate entries in the source; they are usually repeats but may differ in a detail not shown here. Equal entries are not always repeated. Structures can show the parent of a compound that is named as a salt. Where two headings read alike, the source gives them in different places. Where only a bound is given, the exact number is not on record here.

In data set [1] the test system is SUDHL5. Description: Antiproliferation assay (Assay 7), SUDHL5. Format: cell-based. As to conditions: CellTiter-Glo, median, read-out: Antiproli SUDHL5 [M] (median) IC50. The method in brief: (§1)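 Cells were treated with compound for 72 hours at 37° C in a humidified incubator, and viability was then read by CellTiter-Glo luminescence. A parallel reference plate was read at time zero (day 0) in the same way for baseline determination.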
For orientation: Cellular ATP, detected with luciferase, serves as a proxy for viable cell number.

In another data set the target is BCL-2 (Homo sapiens (Human), UniProt P10415). Description: Protein-protein interaction assay BCL-2/Bad BH3 peptide (BCL-2 assay, TR-FRET). Format: binding. Particulars: His-BCL-2 / Bad BH3 peptide, median. How it is done:
Assay 3 Protein-Protein Interaction Assay: BCL-2/Bad BH3 Peptide (BCL-2 Assay)
The dose-dependent inhibition by the compounds described in this invention of the interaction between BCL-2 and the BH3 domain of Bad (both human) was determined using a steady state binding competition assay with time-resolved fluorescence energy transfer (TR-FRET) readout. For that purpose BCL-2 (amino acids 1-211, C-terminal fused to a hexahistidine (6×His) tag (SEQ ID 5) and a synthetic Bad BH3-derived peptide of sequence Biotin-PEG2-PEG2-NLWAAQRYGRELRR-Nle-SDEFVDSFKK-amide (SEQ ID 4) served as protein receptor and tracer ligand respectively. The recombinant BCL-2 protein (expressed in E. coli) was purchased from BPS Bioscience (San Diego, Calif., USA). The Bad BH3-derived peptide can be obtained from e.g. Biosyntan (Berlin, Germany).
In the assay 11 different concentrations of each compound (0.1 nM, 0.33 nM, 1.1 nM, 3.8 nM, 13 nM, 44 nM, 0.15 μM, 0.51 μM, 1.7 μM, 5.9 μM and 20 μM) were typically measured as duplicates in the same microtiter plate. For that, 100-fold concentrated DMSO solutions were prepared by serial dilutions (1:3.4) of a 2 mM stock solution in a clear, 384-well microtiter plate (Greiner Bio-One, Frickenhausen, Germany). From there, 50 nl were transferred in a dark test plate (Greiner Bio-One, Frickenhausen, Germany). The assay was initiated by addition of 2 μl of a 2.5-fold concentrated His-BCL-2 solution (usually for a 1 nM end concentration in 5 μl reaction volume) in aqueous assay buffer [50 mM Tris/HCl pH 7, 100 mM sodium chloride (NaCl), 50 mM potassium fluoride (KF), 0.005% Tween-20, 2 mM DTT, 0.1% bovine gamma globulin (BGG)] to the compounds in the assay plate. This was followed by a 10-minute incubation step at 22° C. for pre-equilibration of the putative complex between His-BCL-2 and the compounds. After that, 3 μl of a 1.67-fold concentrated solution (in assay buffer) consisting of Bad BH3-derived peptide (1 nM end concentration) and TR-FRET detection reagents [1.67 nM anti-His-Eu cryptate and 1.67 nM streptavidin-XL665 (both from Cisbio Bioassays, Codolet, France)], were added.
The mixture was incubated in the dark for one hour at 22° C. and then overnight at 4° C. The formation of BCL-2/Bad complexes was determined by measuring the resonance energy transfer of the anti-His-Eu-cryptate antibody to the streptavidin-XL665 present in the reaction. For that purpose, the fluorescence emission at 620 nm and 665 nm after excitation at 330-350 nm was measured in a TR-FRET measuring instrument, for instance a Rubystar or a Pherastar (both from BMG Lab Technologies, Offenburg, Germany) or a Viewlux (Perkin-Elmer). The ratio of the emission at 665 nm and at 622 nm was used as indicator of the amount of BCL-2/Bad complexes present.
The resulting data (ratio) were normalized, taking 0% inhibition as the mean value of control measurements (usually 32 data points) where all reagents were included. In this case 50 nl DMSO were used instead of compounds. A 100% inhibition corresponded to the mean value of control measurements (usually 32 data points) where all reagents except BCL-2 were included. IC50 values were determined by regression analysis based on a 4 parameter equation (minimum, maximum, IC50, Hill; Y=Max+(Min−Max)/(1+(X/IC50)^HiII) using the Screener Software (Genedata).
(In general: Time-resolved FRET reads energy transfer from a long-lived donor to a nearby acceptor.)

For another data set, the system named is MV-4-11. Description: Antiproliferation assay (Assay 7), MV-4-11. Format: cell-based. As to conditions: CellTiter-Glo, several values per example. An outline of the steps:
as §1

Data set [2] relates to SUDHL5. Description: Induction of cytotoxicity (Assay 6), SUDHL5. As to conditions: read-out: Cytotox SUDHL5 [M] (median) IC50, CellTiter-Glo, 5 hours, SUDHL5.
Method: Assay 6 Induction of Cytotoxicity Upon Treatment of Cells with Selected Compounds
Therefore, cytotoxicity assays were run in parallel in SUDHL5 and SUDHL10 cells.
The different cell lines were plated in culture medium (RPMI 1640 [GIBCO #22400-089] supplemented with 10% Fetal Bovine Serum) at a density of 3,300 cells in 30 μl/well in a sterile, solid black, flat bottom, polystyrene, TC-treated 384-well microplate (Corning #3571) using Multidrop Combi Reagent Dispenser. As a control, medium without cells was also added to the plate. Cells were incubated in a humidified incubator at 37° C. overnight. On the next day, the cells were treated with compounds (stock solution, 10 mM in DMSO) using the HP D300 Digital Dispenser in a concentration range of 3.3×10e-5 M (33 μM) to 5×10e-9 M (5 nM) in a single-dot curve with at least 16 dilutions and a DMSO concentration of 0.33%. Rim wells were excluded. The cells were incubated for 5 hours in a humidified incubator at 37° C. After this incubation, 30 μl of CellTiter-Glo® Luminescent Cell Viability reagent (Promega, G7573) was added to each well using the Multidrop Combi Reagent Dispenser, followed by 15 minutes incubation on a shaker at room temperature. Finally, luminescence was read at 0.1 ms, with a gain of 3000 using the PHERAstar FS microplate reader (BMG Labtech).
In data set [3] the test system is SUDHL5. Description: Induction of caspase-3/7 activity (Assay 4), SUDHL5. Format: cell-based. As to conditions: caspase-3/7 induction, median. The method in brief: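 Caspase-3/7 activity measured by Caspase-Glo 3/7 luminescence in DLBCL cells after 3 h compound treatment at 37 °C. Medium-only background subtracted. EC50 fitted with C0 fixed at 1 and top set to the reference compound's plateau/max induction.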

Where [4] appears, read: Homo sapiens, MV4-11, 72 h, read-out: Antiproli MV-4-11 [M] IC50.
[5] abbreviates: 72 hours, read-out: Antiproli MV-4-11 [M] IC50.

By IC50 is commonly meant the concentration at which inhibition is half-maximal. Broadly, the EC50 is the concentration that produces a half-maximal response. Read a low EC50 as higher potency in that assay.

Sequence of BCL-2 (P10415 other isoform, or with tags, fused parts or gaps): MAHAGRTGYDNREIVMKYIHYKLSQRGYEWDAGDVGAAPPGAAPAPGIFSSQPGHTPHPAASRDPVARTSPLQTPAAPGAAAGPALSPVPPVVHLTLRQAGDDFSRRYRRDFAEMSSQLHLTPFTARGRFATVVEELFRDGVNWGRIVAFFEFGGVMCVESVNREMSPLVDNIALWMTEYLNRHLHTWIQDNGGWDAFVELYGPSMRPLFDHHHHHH

Regarding `Cc1c2c(nn1C)CN(CCN1CCOCC1)S(=O)(=O)CCCn1c(C(=O)O)c(CCCOc3cccc4ccccc34)c3cccc-2c31` (racemic) [Example 1, (rac)-2,3-Dimethyl-14-[2-(morpholin-4-yl)ethyl]-7-{3-[(naphthalen-1-yl)oxy]propyl}-13,13-dioxo-10,11,12,13,14,15-hexahydro-2H-13λ^6-pyrazolo[3′,4′:4,5][1,2,8]thiadiazacycloundecino-[6,7,8-hi]indole-8-carboxylic acid], the IC50 is 7.2e-06 M in the data set with SUDHL5 [1] (Homo sapiens, SU-DHL-5, 72 h); above 20 µM at BCL-2; 1.8e-05 M and 2.38e-05 M with MV-4-11 (72 hours, listed as 01, read-out: Antiproli MV-4-11 [M] IC50); 1.73e-05 M in the data set with MV-4-11 (setting [4]); 6.7e-06 M with SUDHL5 [2] (Homo sapiens, SU-DHL-5, 5 h). The same molecule gave an EC50 in the data set with SUDHL5 [3] (Homo sapiens, SU-DHL-5, 3 h) of 4.8 µM.

For the molecule `Cc1c2c(nn1C)CN(C)S(=O)(=O)CCCn1c(C(=O)O)c(CCCOc3cccc4ccccc34)c3ccc(Cl)c-2c31` (racemic) [Example 4, (rac)-4-Chloro-2,3,14-trimethyl-7-{3-[(naphthalen-1-yl)oxy]propyl}-13,13-dioxo-10,11,12,13,14,15-hexahydro-2H-13λ^6-pyrazolo[3′,4′:4,5][1,2,8]thiadiazacycloundecino-[6,7,8-hi]indole-8-carboxylic acid], the IC50 in the data set on SUDHL5 [1] (72 hours) was 9.2e-07 M; against BCL-2 it was above 20 µM; in the data set with MV-4-11 (72 hours, listed as 04, read-out: Antiproli MV-4-11 [M] IC50) it was 1.58e-06 M and 1.47e-06 M and 1.25e-06 M; in the data set with SUDHL5 [2], 8.1e-07 M. This molecule showed an EC50 in the data set with SUDHL5 [3] (3 hours) of 0.63 µM.

Take `CCc1c2c(nn1C)CN(C)S(=O)(=O)CCCn1c(C(=O)O)c(CCCOc3cccc4cc(F)ccc34)c3ccc(F)c-2c31` (racemic) [Example 7, (rac)-12-Ethyl-13-fluoro-1-(3-((6-fluoronaphthalen-1-yl)oxy)propyl)-8,11-dimethyl-5,6,9,11-tetrahydro-4H,8H-pyrazolo[3′,4′:4,5][1]thia[2,8]diazacycloundecino[6,7,8-hi]indole-2-carboxylic acid 7,7-dioxide]: the IC50 came to 2.2e-07 M with SUDHL5 [1] (Homo sapiens, SU-DHL-5, 72 h); 18 µM against BCL-2; 2.15e-06 M with MV-4-11 (72 hours, listed as 07, read-out: Antiproli MV-4-11 [M] IC50); 1.35e-06 M with MV-4-11 (setting [4]); 4.7e-07 M in the data set with SUDHL5 [2] (Homo sapiens, SU-DHL-5, 5 h). In the data set on SUDHL5 [3] (Homo sapiens, SU-DHL-5, 3 h), this molecule registered an EC50 of 0.51 µM.

On to `CCc1c2c(nn1C)CN(CCCN1CCCC1=O)S(=O)(=O)CCCn1c(C(=O)O)c(CCCOc3cccc4ccccc34)c3cccc-2c31` (racemic) [Example 13, (rac)-12-Ethyl-11-methyl-1-(3-(naphthalen-1-yloxy)propyl)-8-(3-(2-oxopyrrolidin-1-yl)propyl)-5,6,9,11-tetrahydro-4H,8H-pyrazolo[3′,4′:4,5][1]thia[2,8]diazacycloundecino[6,7,8-hi]indole-2-carboxylic acid 7,7-dioxide], for which the IC50 in the data set on SUDHL5 [1] (Homo sapiens, SU-DHL-5, 72 h) was 4.4e-06 M; against BCL-2 it was above 20 µM; in the data set with MV-4-11 (setting [4]) it was 1.62e-05 M; with SUDHL5 [2] (Homo sapiens, SU-DHL-5, 5 h), 8.2e-06 M. This molecule returned an EC50 in the data set on SUDHL5 [3] (Homo sapiens, SU-DHL-5, 3 h) of 10 µM.

With `CCc1c2c(nn1C)CN(CCN1CCCCC1)S(=O)(=O)CCCn1c(C(=O)O)c(CCCOc3cccc4ccccc34)c3cccc-2c31` (racemic) [Example 14, (rac)-12-Ethyl-11-methyl-1-(3-(naphthalen-1-yloxy)propyl)-8-(2-(piperidin-1-yl)ethyl)-4,5,6,8,9,11-hexahydropyrazolo[3′,4′:4,5][1,2,8]thiadiazacycloundecino[6,7,8-hi]indole-2-carboxylic acid 7,7-dioxide 2,2,2-trifluoroacetic acid salt], the IC50 was 3.3e-06 M in the data set on SUDHL5 [1] (Homo sapiens, SU-DHL-5, 72 h); above 20 µM against BCL-2; 1.28e-05 M with MV-4-11 (setting [5]); 1.18e-05 M in the data set on MV-4-11 (setting [4]); 5.2e-06 M in the data set on SUDHL5 [2] (Homo sapiens, SU-DHL-5, 5 h). The response in the data set with SUDHL5 [3] (Homo sapiens, SU-DHL-5, 3 h) was half-maximal at 4.6 µM (EC50).

Take `CCc1c2c(nn1C)CN(CCCN1CCOCC1)S(=O)(=O)CCCn1c(C(=O)O)c(CCCOc3cccc4ccccc34)c3cccc-2c31` (racemic) [Example 15, (rac)-12-Ethyl-11-methyl-8-(3-morpholinopropyl)-1-(3-(naphthalen-1-yloxy)propyl)-4,5,6,8,9,11-hexahydropyrazolo[3′,4′:4,5][1,2,8]thiadiazacycloundecino[6,7,8-hi]indole-2-carboxylic acid 7,7-dioxide 2,2,2-trifluoroacetic acid salt]: the IC50 with SUDHL5 [1] (Homo sapiens, SU-DHL-5, 72 h) was 1.8e-06 M; at BCL-2, above 20 µM; with MV-4-11 (setting [5]), 1.04e-05 M; in the data set on MV-4-11 (setting [4]), 9.37e-06 M; in the data set on SUDHL5 [2] (Homo sapiens, SU-DHL-5, 5 h) it was 2.9e-06 M. In the data set on SUDHL5 [3] (Homo sapiens, SU-DHL-5, 3 h), this molecule gave an EC50 of 2.5 µM.

As to `CCc1c2c(nn1C)CN(CCCN1CCCC1)S(=O)(=O)CCCn1c(C(=O)O)c(CCCOc3cccc4ccccc34)c3cccc-2c31` (racemic) [Example 16, (rac)-12-Ethyl-11-methyl-1-(3-(naphthalen-1-yloxy)propyl)-8-(3-(pyrrolidin-1-yl)propyl)-5,6,9,11-tetrahydro-4H,8H-pyrazolo[3′,4′:4,5][1]thia[2,8]diazacycloundecino[6,7,8-hi]indole-2-carboxylic acid 7,7-dioxide], the IC50 is 2.2e-05 M with SUDHL5 [1] (Homo sapiens, SU-DHL-5, 72 h); above 20 µM against BCL-2; above 3.3e-05 M with MV-4-11 (setting [4]); 3.2e-05 M with SUDHL5 [2] (Homo sapiens, SU-DHL-5, 5 h). For the same molecule, the EC50 in the data set on SUDHL5 [3] (Homo sapiens, SU-DHL-5, 3 h) turned out to be 32 µM.

For the molecule `CCc1c2c(nn1C)CNS(=O)(=O)CCCn1c(C(=O)O)c(CCCOc3cccc4ccccc34)c3cccc-2c31` (racemic) [Example 17, (rac)-12-Ethyl-11-methyl-1-(3-(naphthalen-1-yloxy)propyl)-4,5,6,8,9,11-hexahydropyrazolo[3′,4′:4,5][1,2,8]thiadiazacycloundecino[6,7,8-hi]indole-2-carboxylic acid 7,7-dioxide], the IC50 with SUDHL5 [1] (Homo sapiens, SU-DHL-5, 72 h) was 4.7e-06 M; on BCL-2, above 20 µM; in the data set with MV-4-11 (setting [4]), 1.65e-05 M; in the data set with SUDHL5 [2] (Homo sapiens, SU-DHL-5, 5 h) it was 9.3e-06 M. The molecule further displayed an EC50 with SUDHL5 [3] (Homo sapiens, SU-DHL-5, 3 h) of 13 µM.

Turning to `CCc1c2c(nn1C)C(C)N(C)S(=O)(=O)CCCn1c(C(=O)O)c(CCCOc3cccc4ccccc34)c3cccc-2c31` (racemic) [Example 18, 12-Ethyl-8,9,11-trimethyl-1-(3-(naphthalen-1-yloxy)propyl)-5,6,9,11-tetrahydro-4H,8H-pyrazolo[3′,4′:4,5][1]thia[2,8]diazacycloundecino[6,7,8-hi]indole-2-carboxylic acid 7,7-dioxide (Mixture of Stereoisomers)], the IC50 was 3.7e-06 M in the data set with SUDHL5 [1] (Homo sapiens, SU-DHL-5, 72 h); above 20 µM at BCL-2; 3.75e-06 M with MV-4-11 (setting [4]); 3.5e-06 M with SUDHL5 [2] (Homo sapiens, SU-DHL-5, 5 h). In the data set with SUDHL5 [3] (Homo sapiens, SU-DHL-5, 3 h), the EC50 amounted to 3.8 µM.
